In patent US10231967B2, “Compounds and their use as BACE inhibitors” (ASTRAZENECA AB, priority 2010, dated 2019):

System: sAPPβ release in SH-SY5Y cells
Experiment: sAPPβ release assay
Format: cell-based
Settings: Homo sapiens, SH-SY5Y, 17 h, compounds incubated 17 h, MSD detection
Method: Thaw cells and seed at a conc. of around 10000 cells/well in DMEM/F-12 with Glutamax, 10% FCS and 1% non-essential amino acids to a 384-well tissue culture treated plate, 100 μL cell susp/well. […] The cell medium was removed, followed by addition of 30 μL compound diluted in DMEM/F-12 with Glutamax, 10% FCS, 1% non-essential amino acids and 1% PeSt to a final conc. of 1% DMSO. The compounds were incubated with the cells for 17 h (overnight) at 37° C., 5% CO2. Meso Scale Discovery (MSD) plates were used for the detection of sAPPβ release. MSD sAPPβ plates were blocked in 1% BSA in Tris wash buffer (40 μL/well) for 1 h on shake at r.t. and washed 1 time in Tris wash buffer (40 μL/well). 20 μL of medium was transferred to the pre-blocked and washed MSD sAPPβ microplates, and the cell plates were further used in an ATP assay to measure cytotoxicity. The MSD plates were incubated with shaking at r.t. for 2 h and the media discarded. 10 μL detection antibody was added (1 nM) per well followed by incubation with shaking at r.t. for 2 h and then discarded. 40 μL Read Buffer was added per well and the plates were read in a SECTOR Imager.

**Q.** How did the IC50 turn out when `CC#Cc1cncc(-c2ccc3c(c2)C2(N=C(C)C(N)=N2)C2(CCC(F)(F)CC2)C3)c1` (stereo not drawn) [Example 28h, 4,4-Difluoro-5″-methyl-6′-[5-(prop-1-yn-1-yl)pyridin-3-yl]-3′H-dispiro[cyclohexane-1,2′-indene-1′,2″-imidazol]-4″-amine] was run?
**A.** 0.018 µM

**Q.** `CC1=N[C@]2(C[C@@H]([C@@H]3CCCOC3)Oc3ccc(-c4cccc(Cl)c4)cc32)N=C1N` [Example 48 Isomer 1, (2S,4R)-6-(3-chlorophenyl)-5′-methyl-2-[(3R)-tetrahydro-2H-pyran-3-yl]-2,3-dihydrospiro[chromene-4,2′-imidazol]-4′-amine] was tested. Which IC50 did it give?
**A.** 0.02 µM

**Q.** With `CC1=N[C@]2(C[C@H]([C@H]3CCCOC3)Oc3ccc(-c4cccc(Cl)c4)cc32)N=C1N` [Example 48 Isomer 4, (2R,4R)-6-(3-chlorophenyl)-5′-methyl-2-[(3 S)-tetrahydro-2H-pyran-3-yl]-1′,2,3,3′-tetrahydrospiro[chromene-4,2′-imidazol]-4′-amine] as the compound, how does the IC50 read?
**A.** 0.689 µM

**Q.** With `CC1=N[C@]2(C[C@H]([C@@H]3CCCOC3)Oc3ccc(-c4cccc(Cl)c4)cc32)N=C1N` [Example 48 Isomer 7, (2R,4R)-6-(3-chlorophenyl)-5′-methyl-2-[(3R)-tetrahydro-2H-pyran-3-yl]-1′,2,3,3′-tetrahydrospiro[chromene-4,2′-imidazol]-4′-amine] as the compound, how does the IC50 read?
**A.** 0.191 µM

**Q.** With `CC1=N[C@]2(C[C@@H]([C@H]3CCCOC3)Oc3ccc(-c4cccc(Cl)c4)cc32)N=C1N` [Example 48 Isomer 8, (2S,4R)-6-(3-chlorophenyl)-5′-methyl-2-[(3S)-tetrahydro-2H-pyran-3-yl]-1′,2,3,3′-tetrahydrospiro[chromene-4,2′-imidazol]-4′-amine] as the compound, how does the IC50 read?
**A.** 0.204 µM

**Q.** How did the IC50 turn out when `CC#Cc1cncc(-c2ccc3c(c2)C2(CCC3)N=C(C)C(N)=N2)c1` (stereo not drawn) [Example 53, 5-Methyl-7′-(5-(prop-1-ynyl)pyridin-3-yl)-3′,4′-dihydro-2′H-spiro[imidazole-2,1′-naphthalen]-4-amine] was run?
**A.** 0.021 µM

**Q.** For `CC1=NC2(N=C1N)c1cc(-c3cncc(Cl)c3)ccc1CC21CCC1` (stereo not drawn) [Example 55, 6′-(5-Chloropyridin-3-yl)-5″-methyl-3′H-dispiro[cyclobutane-1,2′-indene-1′,2″-imidazol]-4″-amine], which IC50 is on record?
**A.** 0.118 µM

**Q.** Which IC50 does the source give for `CC#Cc1cncc(-c2ccc3c(c2)C2(N=C(C)C(N)=N2)C2(CCC2)C3)c1` (stereo not drawn) [Example 56, 5″-Methyl-6′-[5-(prop-1-yn-1-yl)pyridin-3-yl]-3′H-dispiro[cyclobutane-1,2′-indene-1′,2″-imidazol]-4″-amine] here?
**A.** 0.024 µM

**Q.** How did the IC50 turn out when `CC1=NC2(N=C1N)c1cc(C#CC3CC3)ccc1CC21CCC1` (stereo not drawn) [Example 58, 6′-(Cyclopropylethynyl)-5″-methyl-3′H-dispiro[cyclobutane-1,2′-indene-1′,2″-imidazol]-4″-amine] was run?
**A.** 0.219 µM

**Q.** With `CO[C@H]1CC[C@]2(CC1)Cc1ccc(-c3cnc(C)c(Cl)c3)cc1C21N=C(C)C(N)=N1` (stereo partly drawn) [Example 60, (1r,4r)-6′-(5-Chloro-6-methylpyridin-3-yl)-4-methoxy-5″-methyl-3′H-dispiro[cyclohexane-1,2′-indene-1′,2″-imidazol]-4″-amine] as the compound, how does the IC50 read?
**A.** 0.0087 µM

**Q.** How did the IC50 turn out when `CO[C@H]1CC[C@]2(CC1)Cc1ccc(-c3cnc(C)c(Cl)c3)cc1[C@@]21N=C(C)C(N)=N1` [Example 61, (1r,1′R,4R)-6′-(5-Chloro-6-methylpyridin-3-yl)-4-methoxy-5″-methyl-3′H-dispiro[cyclohexane-1,2′-indene-1′,2″-imidazol]-4″-amine] was run?
**A.** 0.0031 µM

**Q.** With `CO[C@H]1CC[C@]2(CC1)Cc1ccc(-c3cc(Cl)cnc3C)cc1C21N=C(C)C(N)=N1` (stereo partly drawn) [Example 62, (1r,4r)-6′-(5-Chloro-2-methylpyridin-3-yl)-4-methoxy-5″-methyl-3′H-dispiro[cyclohexane-1,2′-indene-1′,2″-imidazol]-4″-amine] as the compound, how does the IC50 read?
**A.** 0.0086 µM

**Q.** `CCC1=NC2(N=C1N)c1cc(-c3cncc(Cl)c3)ccc1C[C@]21CC[C@@H](OC)CC1` (stereo partly drawn) [Example 65, (1r,4r)-6′-(5-Chloropyridin-3-yl)-5-ethyl-4-methoxy-3′H-dispiro[cyclohexane-1,2′-indene-1′,2″-imidazol]-4″-amine] was tested. Which IC50 did it give?
**A.** 0.0034 µM

**Q.** How did the IC50 turn out when `CC#Cc1cncc(-c2ccc3c(c2)C2(N=C(N)C(CC)=N2)[C@]2(CC[C@H](OC)CC2)C3)c1` (stereo partly drawn) [Example 67, (1r,4r)-5″-Ethyl-4-methoxy-6′-[5-(prop-1-yn-1-yl)pyridin-3-yl]-3′H-dispiro[cyclohexane-1,2′-indene-1′,2″-imidazol]-4″-amine] was run?
**A.** 0.00081 µM

**Q.** How did the IC50 turn out when `CCC1=NC2(N=C1N)c1cc(-c3cccc(C#N)c3)ccc1C[C@]21CC[C@@H](OC)CC1` (stereo partly drawn) [Example 70, 3-[(1r,4r)-4″-amino-5″-ethyl-4-methoxy-3′H-dispiro[cyclohexane-1,2′-indene-1′,2″-imidazol]-6′-yl]benzonitrile] was run?
**A.** 0.013 µM

**Q.** How did the IC50 turn out when `CO[C@H]1CC[C@]2(CC1)Cc1ccc(-c3cc(C)cc(C#N)c3)cc1C21N=C(C)C(N)=N1` (stereo partly drawn) [Example 74, 3-[(1r,4r)-4″-Amino-4-methoxy-5″-methyl-3′H-dispiro[cyclohexane-1,2′-indene-1′,2″-imidazol]-6′-yl]-5-methylbenzonitrile] was run?
**A.** 0.0021 µM

Same assay, conditions: Homo sapiens, compounds incubated 17 h, MSD detection

**Q.** `COC1CCC2(CC1)Oc1ccc(Br)cc1C21N=C(C)C(N)=N1` (stereo not drawn) [Example 29, 5′-bromo-4-methoxy-5″-methyldispiro[cyclohexane-1,2′-[1]benzofuran-3′,2″-imidazol]-4″-amine] was tested. Which IC50 did it give?
**A.** 0.848 µM

**Q.** For `COC1CCC2(CC1)Oc1ccc(-c3cncc(Cl)c3)cc1C21N=C(C)C(N)=N1` (stereo not drawn) [Example 30d, 5′-(5-Chloropyridin-3-yl)-4-methoxy-5′-methyldispiro[cyclohexane-1,2′-[1]benzofuran-3′,2″-imidazol]-4″-amine], which IC50 is on record?
**A.** 0.097 µM

**Q.** How did the IC50 turn out when `CC1=NC2(CCCc3ccc(-c4cncc(Cl)c4)cc32)N=C1N` (stereo not drawn) [Example 52, 7′-(5-Chloropyridin-3-yl)-5-methyl-3′,4′-dihydro-2′H-spiro[imidazole-2,1′-naphthalen]-4-amine] was run?
**A.** 0.091 µM

**Q.** For `CC#Cc1cncc(-c2ccc3c(c2)C2(N=C(C)C(N)=N2)[C@]2(CC[C@H](OC)CC2)C3)c1C` (stereo partly drawn) [Example 63, (1r,4r)-4-Methoxy-5″-methyl-6′-[4-methyl-5-(prop-1-yn-1-yl)pyridin-3-yl]-3′H-dispiro[cyclohexane-1,2′-indene-1′,2″-imidazol]-4″-amine], which IC50 is on record?
**A.** 0.029 µM

**Q.** `CCC1=NC2(N=C1N)c1cc(Br)ccc1C[C@]21CC[C@@H](OC)CC1` (stereo partly drawn) [Example 64, (1r,4r)-6′-Bromo-5″-ethyl-4-methoxy-3′H-dispiro[cyclohexane-1,2′-indene-1′,2″-imidazol]-4″-amine] was tested. Which IC50 did it give?
**A.** 0.125 µM

**Q.** With `CCC1=NC2(N=C1N)c1cc(-c3cncc(C#N)c3)ccc1C[C@]21CC[C@@H](OC)CC1` (stereo partly drawn) [Example 69, 5-[(1r,4r)-4″-Amino-5″-ethyl-4-methoxy-3′H-dispiro[cyclohexane-1,2′-indene-1′,2″-imidazol]-6′-yl]pyridine-3-carbonitrile] as the compound, how does the IC50 read?
**A.** 0.01 µM

**Q.** `CC#Cc1cncc(-c2ccc3c(c2)[C@@]2(N=C(C)C(N)=N2)[C@]2(CC[C@H](O)CC2)C3)c1` [Example 73, (1r,1′R,4R)-4″-Amino-5″-methyl-6′-[5-(prop-1-yn-1-yl)pyridin-3-yl]-3′H-dispiro[cyclohexane-1,2′-indene-1′,2″-imidazol]-4-ol] was tested. Which IC50 did it give?
**A.** 0.001 µM

**Q.** Which IC50 does the source give for `CC1=NC2(N=C1N)c1cc(-c3cc(Cl)cc(C#N)c3)ccc1CC21CC1` (stereo not drawn) [Example 78, 3-(4″-Amino-5″-methyl-3′H-dispiro[cyclopropane-1,2′-indene-1′,2″-imidazol]-6′-yl)-5-chlorobenzonitrile] here?
**A.** 0.056 µM
